{"source": "patent US20120129811A1", "about": "“TRICYCLIC INHIBITORS OF PRO-MATRIX METALLOPROTEINASE ACTIVATION” (priority 2010, published 2012)", "key": {"[1]": {"target": "T1, MMP9 (Rattus norvegicus, UniProt P50282)", "T1 construct": "Pro and active MMP9 were abundantly present in ankles of SCW-induced vehicle-treated rats; from tissue; host or cells: tibia-tarsus joints (ankles) of female Lewis rats", "T1 sequence (P50282 108-708)": "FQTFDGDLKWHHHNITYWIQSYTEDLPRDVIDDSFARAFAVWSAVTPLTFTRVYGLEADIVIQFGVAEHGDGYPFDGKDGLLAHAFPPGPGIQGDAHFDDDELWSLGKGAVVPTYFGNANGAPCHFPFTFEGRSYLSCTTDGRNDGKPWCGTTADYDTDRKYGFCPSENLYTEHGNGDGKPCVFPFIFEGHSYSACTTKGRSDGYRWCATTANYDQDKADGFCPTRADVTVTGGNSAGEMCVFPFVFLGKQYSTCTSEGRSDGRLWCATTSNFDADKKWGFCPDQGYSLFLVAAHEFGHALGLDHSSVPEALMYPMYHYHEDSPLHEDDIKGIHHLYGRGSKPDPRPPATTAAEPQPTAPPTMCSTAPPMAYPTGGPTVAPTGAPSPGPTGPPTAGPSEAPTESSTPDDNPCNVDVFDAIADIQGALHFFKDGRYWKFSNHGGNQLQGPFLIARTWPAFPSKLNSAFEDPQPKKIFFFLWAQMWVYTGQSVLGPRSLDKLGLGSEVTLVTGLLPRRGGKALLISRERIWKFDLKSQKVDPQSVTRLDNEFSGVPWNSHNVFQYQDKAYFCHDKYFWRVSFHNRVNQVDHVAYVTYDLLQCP", "assay": "Western blot of pro and active MMP9 in ankles of rats with SCW-induced arthritis", "type": "in vivo", "conditions": "Day 26, four hours after AM dose", "protocol": "Hind-limbs were skinned, severed just above the tibia-tarsus joint and below the metatarsals, and the tibia-tarsus joints (ankles) were weighed, snap frozen and pulverized on dry ice using a hammer and anvil. The pulverized tissue was suspended in 3 volumes (w:v) of ice-cold homogenization buffer containing 50 mM Tris pH 7.5, 150 mM NaCl, 5 mM EDTA, 1% Triton X100, 0.05% Brij 30, 10% dimethylsulfoxide and Complete EDTA-free Protease Inhibitor Cocktail (Roche Diagnostics). The suspended tissue was homogenized sequentially with a Kinematica AG Polytron and a Dounce homogenizer. Homogenates were centrifuged at 16,000×g for 10 min at 4° C. and the soluble fractions were saved. Dimethylsulfoxide was removed from a portion of each soluble fraction using PD MiniTrap™ G-25 desalting columns (GE Healthcare). Homogenates (0.25 mL), free of DMSO, were diluted with an equal volume of binding buffer (i.e., homogenization buffer without dimethylsufoxide) and adjusted to contain 50 μL of a 50% slurry of gelatin-conjugated sepharose. Following 2 hours of rotation at 4° C. the beads were washed twice in binding buffer and eluted in 100 μL 2×-reducing Laemmli buffer with heating to 95° C. for 5 minutes. […]"}, "[2]": {"target": "T2, MMP9 mediated gelatinase activity (Rattus norvegicus, UniProt P50282)", "T2 construct": "from tissue; host or cells: frozen liver sections of female Lewis rats", "T2 sequence (P50282 20-708)": "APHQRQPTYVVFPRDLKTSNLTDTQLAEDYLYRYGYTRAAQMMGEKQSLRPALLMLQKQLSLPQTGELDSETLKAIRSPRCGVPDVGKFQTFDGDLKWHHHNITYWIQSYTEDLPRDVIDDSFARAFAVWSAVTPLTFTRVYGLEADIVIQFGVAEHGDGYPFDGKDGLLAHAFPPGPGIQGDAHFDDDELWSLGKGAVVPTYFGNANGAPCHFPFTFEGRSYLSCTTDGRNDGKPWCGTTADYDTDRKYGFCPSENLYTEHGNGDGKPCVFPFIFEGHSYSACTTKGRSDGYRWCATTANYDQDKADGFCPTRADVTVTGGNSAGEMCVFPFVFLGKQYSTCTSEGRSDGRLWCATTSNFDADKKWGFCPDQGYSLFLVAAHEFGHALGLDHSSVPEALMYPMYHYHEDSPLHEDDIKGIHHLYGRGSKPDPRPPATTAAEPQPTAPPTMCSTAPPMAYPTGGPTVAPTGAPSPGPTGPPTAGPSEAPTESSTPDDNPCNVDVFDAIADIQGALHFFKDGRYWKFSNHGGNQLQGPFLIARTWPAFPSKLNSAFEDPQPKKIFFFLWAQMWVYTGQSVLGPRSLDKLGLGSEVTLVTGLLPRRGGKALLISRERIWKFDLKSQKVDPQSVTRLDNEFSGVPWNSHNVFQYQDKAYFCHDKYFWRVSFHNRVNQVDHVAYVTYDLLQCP", "assay": "In situ zymography of gelatinase activity in livers of SCW-induced rats dosed with Compound-α", "type": "in vivo", "conditions": "for Intensity, Rat 1 / Intensity, Rat 2 / Intensity, Rat 3 / Intensity, Mean: SCW, liver; for Intensity, Mean: n=3", "excerpt": "In situ zymography provides an alternative approach to assess active MMP9 in tissues (Frederiks). Tissue sections are overlain with fluorescene-conjugated gelatin wherein the conjugation is sufficiently dense to cause the fluorescene to be dye-quenched (DQ). Proteolytic degradation of the DQ-gelatin releases the fluorescene from the quenching effect giving rise to bright green fluorescence at the site of degradation. Because in situ zymography requires the use of frozen sections, calcified tissues are problematic. However, an additional feature of the SCW arthritis model is the development of hepatic granulomatous disease (J Immunol; 1986; 137:2199-2209), and MMP9 reportedly plays a role in macrophage recruitment in the granulomas response to mycobacteria (Infect Immun; 2006; 74:6135-6144). Consequently, granulomatous livers from SCW-treated rats were assessed for active MMP9 by in situ zymography.\nAs described above, Female Lewis (LEW/N) rats, 5-6 weeks of age (80-100 g) were injected (i.p.) with saline or SCW PG-PS. On day 28, when the granulomatous response was well established, animals were sacrificed and livers were frozen in OCT cryo-sectioning medium and 10 μm sections were cut on a Cryome HM 500 M cryotome and mounted on glass microscope slides. Sections were air dried briefly. MMP9 was confirmed as the source of the gelatinase activity in the liver by treating liver sections with monoclonal antibodies directed against the active site of the two major gelatinases MMP9 and MMP2. Liver sections overlain with 50 μL of 100 μg/mL neutralizing mouse monoclonal antibodies directed against MMP9 (Calbiochem, clone 6-6B), or MMP2 (Millipore, clone CA-4001), or with PBS for 1 hr at room temperature. Tissues were rinsed once with PBS, blotted, and briefly air dried and then overlain with DQ-gelatin (Invitrogen) dissolved to 1 mg/mL in deionized water and then diluted 1:10 in 1% wt/vol low gelling point agarose type VII (Sigma) in PBS. The sections were covered with coverslips, incubated in the dark at room temperature for 20 min, and imaged on an Olympus IX80 inverted microscope fitted with fluorescence optics, using SlideBook™ imaging software (Intelligent Imaging Innovations, Inc., Philadelphia, Pa.; version 5.0). Fluorescence intensity was determined (Table 8). When compared to a saline-treated rat, gelatinase activity was abundantly expressed in granulomatous liver sections obtained from a rat with SCW arthritis.\nNext, liver in situ zymography was used to assess the relative presence of active MMP9 in rats dosed with vehicle vs. Compound-α. Female Lewis (LEW/N) rats, 5-6 weeks of age (80-100 g) were injected (i.p.) with saline or SCW PG-PS. Commencing on day 25, randomized groups of rats (n=3 rats/group) received vehicle or 20 or 50 mg/kg Compound-α BID by oral gavage. Vehicle consisted of an aqueous mixture containing 2% (v:v) N-methylpyrrolidone, 5% (v:v) glycerine, and 20% (w:v) captisol. Treatment continued daily through the morning of day 28. Four hrs after the AM dose on day 28, rats were sacrificed and livers assessed for active MMP9 by in situ zymography (Table 9). Gelatinase activity was increased markedly in SCW-induced rats, but activity was reduced by approximately 80% in animals treated with 50 mg/kg Compound-α."}, "[3]": {"conditions": "20 mg/kg BID oral gavage Day 25-28"}, "[4]": {"conditions": "50 mg/kg BID oral gavage Day 25-28"}}, "data": [{"smiles": "Cc1nc(C)c(-c2csc(Nc3cc(S(N)(=O)=O)ccc3OC(C)C)n2)s1", "note": "[Compound α, 3-(2′,4′-Dimethyl-[4,5′]bithiazolyl-2-ylamino)-4-isopropoxy-benzenesulfonamide.HBr]", "values": [{"measurement": "effect on abundance of proMMP9 in ankles", "setting": "[1]; mAb-L51/82", "result": "did not reduce the abundance of proMMP-9"}, {"measurement": "effect on abundance of proMMP9 in ankles", "setting": "[1]; mAb-L51/82, listed as Compound-α", "result": "did not reduce the abundance of proMMP9"}, {"measurement": "reduction of gelatinase activity in liver", "setting": "[2]; 50 mg/kg, SCW-induced rats, day 28", "result": "approximately 80%"}, {"measurement": "Intensity, Rat 1", "setting": "[2]; [3]", "result": 43.0, "unit": "RLU × 10^6"}, {"measurement": "Intensity, Rat 2", "setting": "[2]; [3]", "result": 69.0, "unit": "RLU × 10^6"}, {"measurement": "Intensity, Rat 3", "setting": "[2]; [3]", "result": 53.7, "unit": "RLU × 10^6"}, {"measurement": "Intensity, Mean", "setting": "[2]; [3]", "result": 55.2, "unit": "RLU × 10^6"}, {"measurement": "Intensity, Rat 1", "setting": "[2]; [4]", "result": 3.2, "unit": "RLU × 10^6"}, {"measurement": "Intensity, Rat 2", "setting": "[2]; [4]", "result": 25.6, "unit": "RLU × 10^6"}, {"measurement": "Intensity, Rat 3", "setting": "[2]; [4]", "result": 4.5, "unit": "RLU × 10^6"}, {"measurement": "Intensity, Mean", "setting": "[2]; [4]", "result": 11.1, "unit": "RLU × 10^6"}]}]}
